Assay results as given in patent US6150413A, “Triaromatic compounds and pharmaceutical/cosmetic compositions comprised thereof” (Centre International de Recherches Dermatologiques, priority 1997, dated 2000).

Columns and labels:
RAR [1] = assay: mouse-ear oedema induced by topical application of CD270 (test to identify RAR-antagonist molecules); format: in vivo; settings: for % of inhibition of the agonist activity: mouse-ear oedema, topical, agonist CD270 0.01% w/v; for RAR-antagonist classification from the mouse-ear oedema table: results in words
Description: (§1) The compounds according to the invention show activity in the test of differentiation of mouse embryonic teratocarcinoma cells (F9) (Cancer Research 43, p. 5268, 1983) and/or in the test of inhibition of ornithine decarboxylase after induction with TPA in mice (Cancer Research 38, p. 793-801, 1978). These tests show the activities of these compounds in the fields of cell differentiation and proliferation respectively. In the cell (F9) differentiation test, it is possible to evaluate an agonist activity as an antagonist activity to retinoic acid receptors. […] These compounds are thus also active in a test which consists in identifying RAR-antagonist molecules, as described in French patent application No. 95/07302 filed on Jun. 19, 1995 by the Applicant. This test comprises the following steps: (i) a sufficient amount of an RAR-agonist molecule is applied topically to an area of the skin of a mammal, (ii) a molecule capable of showing RAR-antagonist activity is administered systemically or topically to this same mammal or to this same area of the mammal's skin, before, during or after step (i), and (iii) the response on the area of the mammal's skin thus treated is evaluated. Thus, the response to a topical application to a mammal's ear of an RAR-agonist molecule, which corresponds to an increase in the thickness of that ear, can be inhibited by the systemic or topical administration of an RAR-antagonist molecule.
Results of a test to identify RAR-antagonist molecules, as described in French patent application No. 95/07302 filed on Jun. 19, 1995 by the Applicant.
The test used is that of mouse-ear oedema induced by topical application of 2-(5,6,7,8-tetrahydro-5,5,8,8-tetramethyl-2-naphthyl)-6-benzo[b]-thiophenecarboxylic acid (CD270) at a concentration of 0.01% on a weight per unit volume basis.
The response can be inhibited by the topical administration of a dose (expressed in % on a weight per unit volume basis) of compound X.

RAR [2] = assay: differentiation of mouse embryonic teratocarcinoma cells (F9), inhibition of the activity of agonist CD2043 (RAR-antagonist identification); format: cell-based; settings: for % of inhibition of the agonist activity: F9 cells, compound 10^-5 M, agonist CD2043 10^-8 M; for RAR-antagonist classification from the F9 table: results in words
Description: as §1
Results of a test of differentiation of mouse embryonic teratocarcinoma cells (F9) in order to identify RAR-antagonist molecules, described in Cancer Research 43, p. 5268, 1983.
In the test used, a compound is considered as being an RAR antagonist if it lowers the activity of the agonist (4-[(5,5,8,8-tetramethyl-5,6,7,8-tetrahydro-2-naphthylamino)methyl]benzoicacid, referred to as compound CD2043) on the morphology and secretion of the plasminogen activator by the F9 cells. In this test, the compounds are tested at 10^-5 M and the CD2043 is tested at 10^-8 M.

Row | Compound | % of inhibition of the agonist activity (RAR [1]; dose 0.01% w/v) | % of inhibition of the agonist activity (RAR [2]) | % of inhibition of the agonist activity (RAR [1]; dose 0.1% w/v) | RAR-antagonist classification from the mouse-ear oedema table (RAR [1]) | RAR-antagonist classification from the F9 table (RAR [2]) | inflammation / thickness of the mouse's ear (RAR [1]; topical CD270, 0.01% w/v, mouse ear)
1 | CCCOc1ccc(/C=C/C#Cc2ccc(C(=O)O)cc2)c(-c2ccc(C)cc2)c1 [Example 43, 4-[4-(4'-Methyl-5-propoxybiphenyl-2-yl)but-3-en-(E)-1-ynyl]benzoic acid] | 24% | 84% | – | – | – | –
2 | COCOc1cccc(/C=C/C#Cc2ccc(C(=O)O)cc2)c1-c1ccc(C)cc1 [Example 17, 4-[4-(6-Methoxymethoxy-4'-methylbiphenyl-2-yl)but-3-en-(E)-1-ynyl]benzoic acid] | – | 98% | 94% | – | – | –
3 | Cc1ccc(-c2cccc(F)c2/C=C/C#Cc2ccc(C(=O)O)cc2)cc1 [Example 11, 4-[4-(3-Fluoro-4'-methylbiphenyl-2-yl)but-3-en-(E)-1-ynyl]benzoic acid] | – | 96% | 99% | RAR-antagonist compounds | RAR-antagonist compounds | –
4 | Cc1ccc(-c2c(O)cccc2/C=C/C#Cc2ccc(C(=O)O)cc2)cc1 [Example 44, 4-[4-(4'-Methyl-6-hydroxybiphenyl-2-yl)but-3-en-(E)-1-ynyl]benzoic acid] | – | 97% | 54% | – | – | –
5 | COCOc1cccc(-c2ccc(C)cc2)c1/C=C/C#Cc1ccc(C(=O)O)cc1 [Example 52, 4-[4-(3-Methoxymethoxy-4'-methylbiphenyl-2-yl)but-3-en-(E)-1-ynyl]benzoic acid] | – | 97% | 97% | RAR-antagonist compounds | RAR-antagonist compounds | –
6 | C/C(=C\C#Cc1ccc(C(=O)O)cc1)c1ccccc1-c1ccc(C)cc1 [Example 18, 4-[4-(4'-Methylbiphenyl-2-yl)pent-3-en-(E)-1-ynyl]benzoic acid] | – | 69% | 41% | – | – | –
7 | Cc1ccc(-c2ccc(C)cc2/C=C/C#Cc2ccc(C(=O)O)cc2)cc1 [Example 12, 4-[4-(4,4'-Dimethylbiphenyl-2-yl)but-3-en-1-ynyl]benzoic acid] | 45% | 87% | – | RAR-antagonist compounds | RAR-antagonist compounds | –
8 | COCOc1ccc(/C=C/C#Cc2ccc(C(=O)O)cc2)c(-c2ccc(C)cc2)c1 [Example 16, 4-[4-(5-Methoxymethoxy-4'-methylbiphenyl-2-yl)but-3-en-(E)-1-ynyl]benzoic acid] | 34% | 92% | – | – | – | –
9 | CC1(C)CCC(C)(C)c2cc(-c3cc4ccc(C(=O)O)cc4s3)ccc21 [CD270, 2-(5,6,7,8-tetrahydro-5,5,8,8-tetramethyl-2-naphthyl)-6-benzo[b]-thiophenecarboxylic acid, reference compound] | – | – | – | – | – | causes an inflammation which is characterized by an increase in the thickness of the mouse's ear
10 | COc1cccc(/C=C/C#Cc2ccc(C(=O)O)cc2)c1-c1ccc(C)cc1 [Example 45, 4-[4-(4'-Methyl-6-methoxybiphenyl-2-yl)but-3-en-(E)-1-ynyl]benzoic acid] | – | 95% | 99% | – | – | –
11 | COc1ccc(/C=C/C#Cc2ccc(C(=O)O)cc2)c(-c2ccc(C)cc2)c1 [Example 42, 4-[4-(4'-Methyl-5-methoxybiphenyl-2-yl)but-3-en-(E)-1-ynyl]benzoic acid] | 26% | 91% | – | – | – | –
12 | O=C(O)c1ccc(C#C/C=C/c2ccccc2-c2ccccc2)cc1 [Example 1, 4-(4-Biphenyl-2-ylbut-3-en-(E)-1-ynyl)benzoic acid] | 78% | 100% | – | RAR-antagonist compounds | RAR-antagonist compounds | –
13 | Cc1ccc(-c2ccccc2/C=C/C#Cc2ccc(C(=O)O)cc2)cc1 [Example 2, 4-[4-(4'-Methylbiphenyl-2-yl)but-3-en-(E)-1-ynyl]benzoic acid] | 85% | 94% | – | RAR-antagonist compounds | RAR-antagonist compounds | –
14 | COCOc1ccc(-c2ccccc2/C=C/C#Cc2ccc(C(=O)O)cc2)cc1 [Example 28, 4-[4-(4'-Methoxymethoxybiphenyl-2-yl)but-3-en-(E)-1-ynyl]benzoic acid] | 31% | 96% | – | RAR-antagonist compounds | RAR-antagonist compounds | –
15 | COCOc1ccc(-c2ccc(C)cc2)c(/C=C/C#Cc2ccc(C(=O)O)cc2)c1 [Example 15, 4-[4-(4-Methoxymethoxy-4'-methylbiphenyl-2-yl)but-3-en-(E)-1-ynyl]benzoic acid] | 43% | 93% | – | – | – | –
16 | Cc1ccc(-c2c(C)cccc2/C=C/C#Cc2ccc(C(=O)O)cc2)cc1 [Example 14, 4-[4-(6,4'-Dimethylbiphenyl-2-yl)but-3-en-(E)-1-ynyl]benzoic acid] | – | 95% | 93% | – | – | –
